From patent US4103011A, “Novel penicillin compounds and process for preparation thereof” (priority 1976, dated 1978)
Structures can show the parent of a compound that is named as a salt. Where two headings read alike, the source gives them in different places.

Tests used:
[1] = tested on: Corynebacterium pyogenes C-21; assay: In vitro antibacterial activity (MIC); type: cell-based; settings: Rhodococcus (subgen. Prescottella) equi, C21; Corynebacterium pyogenes C-21; read-out: minimum inhibitory concentration (MIC)
Excerpt: (§1) In vitro antibacterial activity against 20 strains of bacteria
(§2) The numerals in the table show minimum inhibitory concentrations (MIC)

[2] = tested on: Enterobacter cloacae P-2540; assay: In vitro antibacterial activity (MIC); type: cell-based
Excerpt: as §1, §2

[3] = tested on: Escherichia coli NIHJ JC-2; assay: In vitro antibacterial activity (MIC); type: cell-based
Excerpt: as §1, §2

Escherichia coli P-140a = assay: In vitro antibacterial activity (MIC); type: cell-based
Excerpt: as §1, §2

Escherichia coli P-5101 [4] = assay: In vitro antibacterial activity (MIC); type: cell-based; settings: Escherichia coli, P5101, read-out: minimum inhibitory concentration (MIC)
Excerpt: as §1, §2

[5] = tested on: Klebsiella pneumoniae No. 13; assay: In vitro antibacterial activity (MIC); type: cell-based; settings: Klebsiella pneumoniae No. 13; read-out: minimum inhibitory concentration (MIC)
Excerpt: as §1, §2

Proteus mirabilis P-2381 = assay: In vitro antibacterial activity (MIC); type: cell-based
Excerpt: as §1, §2

Proteus morganii Kono = assay: In vitro antibacterial activity (MIC); type: cell-based; settings: Morganella morganii, read-out: minimum inhibitory concentration (MIC)
Excerpt: as §1, §2

Proteus rettgeri P-2503 = assay: In vitro antibacterial activity (MIC); type: cell-based; settings: Providencia rettgeri
Excerpt: as §1, §2

[6] = tested on: Pseudomonas aeruginosa No.12; assay: In vitro antibacterial activity (MIC); type: cell-based
Excerpt: as §1, §2

[7] = tested on: Pseudomonas aeruginosa Tsuchijima; assay: In vitro antibacterial activity (MIC); type: cell-based; settings: Pseudomonas aeruginosa Tsuchijima; read-out: minimum inhibitory concentration (MIC)
Excerpt: as §1, §2

[8] = tested on: Salmonella enteritidis No. 1891; assay: In vitro antibacterial activity (MIC); type: cell-based; settings: Salmonella enterica; Salmonella enteritidis No. 1891; read-out: minimum inhibitory concentration (MIC)
Excerpt: as §1, §2

[9] = tested on: Salmonella typhimurium S-9; assay: In vitro antibacterial activity (MIC); type: cell-based; settings: Salmonella enterica; Salmonella typhimurium S-9; read-out: minimum inhibitory concentration (MIC)
Excerpt: as §1, §2

[10] = tested on: Serratia mercescens IFO 3736; assay: In vitro antibacterial activity (MIC); type: cell-based
Excerpt: as §1, §2

Shigella flexneri 2a = assay: In vitro antibacterial activity (MIC); type: cell-based; settings: read-out: minimum inhibitory concentration (MIC)
Excerpt: as §1, §2

[11] = tested on: Shigella flexneri 4a P-330; assay: In vitro antibacterial activity (MIC); type: cell-based; settings: 4AP330, read-out: minimum inhibitory concentration (MIC)
Excerpt: as §1, §2

[12] = tested on: Staphylococcus aureus 209P JC-1; assay: In vitro antibacterial activity (MIC); type: cell-based; settings: Staphylococcus aureus 209P JC-1; read-out: minimum inhibitory concentration (MIC)
Excerpt: as §1, §2

[13] = tested on: Staphylococcus aureus No. 50774; assay: In vitro antibacterial activity (MIC); type: cell-based; settings: Staphylococcus aureus No. 50774; read-out: minimum inhibitory concentration (MIC)
Excerpt: as §1, §2

[14] = tested on: Streptococcus faecalis P-2473; assay: In vitro antibacterial activity (MIC); type: cell-based; settings: Enterococcus faecalis
Excerpt: as §1, §2

[15] = tested on: Streptococcus pyogenes 65A; assay: In vitro antibacterial activity (MIC); type: cell-based; settings: Streptococcus pyogenes 65A; read-out: minimum inhibitory concentration (MIC)
Excerpt: as §1, §2

[16] = tested on: Staphylococcus aureus No. 50774; assay: In vivo efficacy against systemic infection; parameters: species or system male mice (ddY); settings: NO.50774, in Mus musculus, 336 h, sc, twice, about 5 minutes and 6 hours after infection, read-out: ED50 (median effective dose)
Description: (§3) The contents in the vials (No. A and No. C) prepared in Example 17 were each dissolved in deionized water, and injections having various concentrations were prepared.
(§4) Compounds A, B, F, G, H and M were dissolved in deionized water. Compounds C, D, E and J were dissolved in an aqueous solution of sodium carbonate (pH 8-9) to prepare injections of various concentrations.
(§5) Each of the injections was administered to mice under the conditions described below, and the median effective doses (ED50) obtained are shown in Table II.
(§6) Mice: male mice (ddY) weighting about 20g
Staphylococcus aureus No. 50774;
Intravenous infection with 50 to 100
LD50 (about 5 × 10^8cells/mouse) of a
bacterial suspension in saline.
(§7) twice, about 5 minutes and 6 hours after
Staphylococcus aureus No. 50774 14 days
The numerals in the table show ED50 (mg/kg). ED50 values were
(§8) calculated in accordance with the Behrens-Kaerber method [Arch. Exp. Path

Escherichia coli P-5101 [17] = assay: In vivo efficacy against systemic infection; parameters: species or system male mice (ddY); settings: P5101, in Mus musculus, 168 h, twice, about 5 minutes and 6 hours after infection, read-out: ED50 (median effective dose)
Description: as §3
(§9) Compounds A, B, F, G, H and M were dissolved in deionized water.
as §6
(§10) Intraperitoneal infection with 50 to
(§11) of a bacterial suspension in tryptosoy
as §7, §8

[18] = tested on: Pseudomonas aeruginosa No. 12; assay: In vivo efficacy against systemic infection; parameters: species or system male mice (ddY); settings: NO.12, in Mus musculus, twice, about 5 minutes and 6 hours after infection, read-out: ED50 (median effective dose)
Description: as §3, §9, §6
Pseudomonas aeruginosa No. 12;
as §10, §11, §7
Pseudomonas aeruginosa No. 12
as §8

[19] = tested on: bacteria (systemic infection); assay: In vivo efficacy against systemic infection, overall conclusions; parameters: species or system male mice (ddY); settings: Table II
Description: as §3, §4, §5

in vivo = settings: mouse
20 strains of bacteria = assay: In vitro antibacterial activity, overall conclusions; type: cell-based
Excerpt: as §1

[20] = Escherichia coli, NIHJJC2, read-out: minimum inhibitory concentration (MIC)
[21] = Proteus mirabilis, P2381, read-out: minimum inhibitory concentration (MIC)
[22] = Pseudomonas aeruginosa, NO.12, read-out: minimum inhibitory concentration (MIC)
[23] = IFO3736, Serratia mercescens IFO 3736, read-out: minimum inhibitory concentration (MIC)
[24] = P2473, Streptococcus faecalis P-2473, read-out: minimum inhibitory concentration (MIC)
[25] = P2540, Enterobacter cloacae P-2540, read-out: minimum inhibitory concentration (MIC)
[26] = NIHJJC2, Escherichia coli NIHJ JC-2, read-out: minimum inhibitory concentration (MIC)
[27] = P2503, Proteus rettgeri P-2503, read-out: minimum inhibitory concentration (MIC)
[28] = P2381, Proteus mirabilis P-2381, read-out: minimum inhibitory concentration (MIC)
[29] = Pseudomonas aeruginosa No.12, read-out: minimum inhibitory concentration (MIC)

| Compound | MIC [1] | minimum inhibitory concentration (MIC) (Escherichia coli P-140a) | MIC (Escherichia coli P-5101 [4]) | MIC [5] | MIC [7] | MIC [8] | MIC [9] | MIC [10, 23] | MIC (Shigella flexneri 2a) | MIC [11] | MIC [12] | MIC [13] | MIC [14, 24] | MIC [15] | ED50 [16] | ED50 (Escherichia coli P-5101 [17]; iv) | ED50 (Escherichia coli P-5101 [17]; sc) | ED50 ([18]; iv) | ED50 ([18]; sc) | antibacterial activity in vivo (in words) [19] | also measured |
| --- | --- | --- | --- | --- | --- | --- | --- | --- | --- | --- | --- | --- | --- | --- | --- | --- | --- | --- | --- | --- | --- |
| CC1(C)S[C@@H]2[C@H](NC(=O)[C@H](NC(=O)c3c[nH]c4nc(N)ncc4c3=O)c3ccc(O)cc3)C(=O)N2[C@H]1C(=O)O [Compound G, D-α-(5,8-Dihydro-2-amino-5-oxopyrido[2,3-d]pyrimidine-6-carboxamido)-p-hydroxybenzylpenicillin sodium salt] | 0.78 µg/mL | 50 µg/mL | 3.13 µg/mL | 25 µg/mL | 0.39 µg/mL | 0.78 µg/mL | 1.56 µg/mL | 12.5 µg/mL | 3.13 µg/mL | 6.25 µg/mL | 0.39 µg/mL | 0.39 µg/mL | 1.56 µg/mL | < 0.1 µg/mL | ~0.8 mg/kg | 8.8 mg/kg | 11.5 mg/kg | 3.9 mg/kg | 4.4 mg/kg | almost comparable | MIC ([2]; Enterobacter cloacae, P2540, read-out: minimum inhibitory concentration (MIC)): 6.25 µg/mL; MIC [3, 20]: 6.25 µg/mL; MIC (Proteus mirabilis P-2381; [21]): 3.13 µg/mL; MIC (Proteus morganii Kono): 6.25 µg/mL; MIC (Proteus rettgeri P-2503; P2503, read-out: minimum inhibitory concentration (MIC)): 6.25 µg/mL; MIC [6, 22]: 3.13 µg/mL; LD50 at 168 h (in vivo; iv): 1000 mg/kg; selectivity ratio (in vivo; iv): 256; LD50 at 168 h (in vivo; sc): 1000 mg/kg; selectivity ratio (in vivo; sc): 227 |
| CNc1ncc2c(=O)c(C(=O)N[C@@H](C(=O)N[C@@H]3C(=O)N4[C@@H]3SC(C)(C)[C@@H]4C(=O)O)c3ccc(O)cc3)c[nH]c2n1 [Compound F, D-α-(5,8-Dihydro-2-methylamino-5-oxopyrido[2,3-d]pyrimidine-6-carboxamido)-p-hydroxybenzylpenicillin sodium salt] | 0.78 µg/mL | 25 µg/mL | 3.13 µg/mL | 25 µg/mL | 0.78 µg/mL | 1.56 µg/mL | 1.56 µg/mL | 12.5 µg/mL | 3.13 µg/mL | 6.25 µg/mL | 0.39 µg/mL | 0.39 µg/mL | 1.56 µg/mL | < 0.1 µg/mL | ~0.7 mg/kg | 12 mg/kg | 6.3 mg/kg | 5.7 mg/kg | 4.8 mg/kg | almost comparable | MIC [2, 25]: 12.5 µg/mL; MIC [3, 26]: 12.5 µg/mL; MIC (Proteus mirabilis P-2381; [21]): 3.13 µg/mL; MIC (Proteus morganii Kono; Proteus morganii Kono): 12.5 µg/mL; MIC (Proteus rettgeri P-2503; [27]): 12.5 µg/mL; MIC [6, 22]: 6.25 µg/mL; LD50 at 168 h (in vivo; iv): 1410 mg/kg; selectivity ratio (in vivo; iv): 248; LD50 at 168 h (in vivo; sc): 1410 mg/kg; selectivity ratio (in vivo; sc): 295 |
| CC1(C)S[C@@H]2[C@H](NC(=O)[C@H](N)c3ccc(O)cc3)C(=O)N2[C@H]1C(=O)O [Compound M, D-α-Amino-p-hydroxybenzylpenicillin sodium salt] | 0.39 µg/mL | > 200 µg/mL | 6.25 µg/mL | 200 µg/mL | 200 µg/mL | 0.39 µg/mL | 0.78 µg/mL |  | 6.25 µg/mL | 25 µg/mL | 0.1 µg/mL | 0.1 µg/mL | 0.78 µg/mL | 0.025 µg/mL | 0.34 mg/kg | 3.2 mg/kg | 3.4 mg/kg |  | > 200 mg/kg |  | MIC [2, 25]: > 200 µg/mL; MIC [3, 20]: 6.25 µg/mL; MIC (Proteus mirabilis P-2381; [28]): 1.56 µg/mL; MIC (Proteus morganii Kono; Proteus morganii Kono): 200 µg/mL; MIC (Proteus rettgeri P-2503; [27]): 50 µg/mL; MIC [6, 29]: > 200 µg/mL; MIC ([10]; Serratia, IFO3736, read-out: minimum inhibitory concentration (MIC)): 50 µg/mL; antibacterial activity (in words) (20 strains of bacteria; Ampicillin-resistant strains): does not exhibit antibacterial activity; antibacterial activity (in words) (20 strains of bacteria; E. coli P-140a, Klebsiella pneumonia, Enterobacter cloacae, Pseudomonas aeruginosa, Serratia marcescens): substantially ineffective; antibacterial activity (in words) (20 strains of bacteria; bacteria of the genus Pseudomonas): substantially ineffective |
| CN1CCN(c2ncc3c(=O)c(C(=O)N[C@@H](C(=O)N[C@@H]4C(=O)N5[C@@H]4SC(C)(C)[C@@H]5C(=O)O)c4ccc(O)cc4)c[nH]c3n2)CC1 [Compound A, D-α-[5,8-Dihydro-2-(4-methyl-1-piperazinyl)-5-oxopyrido[2,3-d]pyrimidine-6-carboxamido]-p-hydroxybenzylpenicillin sodium salt] | 0.78 µg/mL | 6.25 µg/mL | 0.39 µg/mL | 6.25 µg/mL | 0.39 µg/mL | 0.2 µg/mL | 0.2 µg/mL | 3.13 µg/mL | 0.78 µg/mL | 0.78 µg/mL | 1.56 µg/mL | 3.13 µg/mL |  | < 0.1 µg/mL | 3.7 mg/kg | 0.7 mg/kg | 1 mg/kg | 2.6 mg/kg | 3.6 mg/kg | almost comparable | MIC [2, 25]: 3.13 µg/mL; MIC [3, 26]: 0.78 µg/mL; MIC (Proteus mirabilis P-2381; [28]): 3.13 µg/mL; MIC (Proteus morganii Kono; Proteus morganii Kono): 3.13 µg/mL; MIC (Proteus rettgeri P-2503; [27]): 6.25 µg/mL; MIC [6, 29]: 1.56 µg/mL; MIC ([14]; P2473, read-out: minimum inhibitory concentration (MIC)): 6.25 µg/mL; LD50 at 168 h (in vivo; iv): 1120 mg/kg; selectivity ratio (in vivo; iv): 432; LD50 at 168 h (in vivo; sc): 1500 mg/kg; selectivity ratio (in vivo; sc): 417 |
